{"source": "patent US20260133193A1", "about": "“COMPOSITIONS AND METHODS FOR TREATING INFLAMMATORY DISEASES” (University of Washington, priority 2018, published 2026)", "key": {"ncf1 (p47 phox)": {"test_system": "ncf1 (p47 phox)", "test": "p47 phox (ncf1) S345 phosphorylation, phosphoproteomics and Western blot", "assay_type": "cell-based, human", "settings": "R848 activation", "procedure": "Another target of TLR7/8 stimulation was ncf1 (p47 phox). Ncf1 was phosphorylated at S345, a known target site involved in activation of the NADPH oxidase complex. […] The experiment was repeated three times; combined results were compared using paired t test (P=0.044). Neutrophils were incubated with R848 in the absence or presence of the PI3K inhibitor Ly294002 and analyzed for pS345 or total levels of p47 phox using Western Blot. The experiment was repeated four times; combined results were compared using paired t test (No stim, P=0.03; R848+LY294002, P=0.0011). […] Briefly, neutrophils were treated with inhibitors of NADPH oxidase prior to addition of R848 and analyzed for cell surface expression of FcgRIIA by flow cytometry. […] Briefly, neutrophils from healthy individuals (HV, n=18) and CGD patients (n=4) were stimulated with R848 and analyzed for FcgRIIA levels by flow cytometry. The data were analyzed using paired t test (HC, P<0.0001) and unpaired t test (HC vs CGD, P=0.0097). Neutrophils from healthy individuals (HV, n=13) and CGD patients (n=3) were activated by R848 and analyzed for CD66b expression by flow cytometry using paired t test (HC, P<0.0001; CGD, P=0.039). […] Briefly, neutrophils were activated with LPS or PAM3CSK4 in presence of DPI and analyzed for FcgRIIA levels by flow cytometry. […]"}, "Akt and S6": {"test_system": "Akt and S6", "test": "S6 and Akt phosphorylation by flow cytometry", "assay_type": "cell-based, human", "settings": "TLR7/8 activation with R848", "procedure": "We next asked which pathway(s) were acting upstream of NADPH oxidase to induce FcgRIIA shedding. […] Phosphorylation of Akt and S6 was determined by flow cytometry upon TLR7/8 activation. The experiment was repeated four times; combined results were compared using paired t test (pS6, P=0.042; pAkt, P=0.037). […] To confirm the role for PI3K in TLR-mediated activation of ROS and subsequent shedding of FcgRIIA, neutrophils were incubated with the PI3K inhibitor LY294002 prior to addition of TLR agonist. Blocking PI3K signaling abrogated TLR-mediated ROS generation, phosphorylation of ncf1 at S345 as well as shedding of FcgRIIA. Briefly, neutrophils, pre-treated with inhibitors of PI3K (LY294002, 10 μM) or NADPH oxidase (DPI, 25 μM), were activated with R848 and analyzed for ROS generation by flow cytometry using DHR123. […] Additionally, neutrophils were pre-treated with the PI3K inhibitor LY294002 (10 μM) and analyzed for R848-mediated shedding of FcgRIIA by flow cytometry. […]\nNeutrophils were activated by R848 for 15 minutes, fixed and permeabilized according to manufacturer's instructions (BioLegend), and incubated with a specific antibody recognizing phosphorylated S235/236 in S6 (Cell Signaling) or phosphorylated S473 in Akt (BD Biosciences) for 60 minutes. pS6 and pAkt levels were analyzed by flow cytometry and expressed as percent positive cells as compared to non-stimulated cells."}}}
{"smiles": "CCOCc1nc2c(N)nc3ccccc3c2n1CC(C)(C)O", "note": "[R848]", "values": [{"measurement": "phosphorylation of ncf1 (p47 phox) at S345", "setting": "ncf1 (p47 phox)", "value": "phosphorylated (p47 phox) at S345"}, {"measurement": "levels of phosphorylated Akt and S6", "setting": "Akt and S6", "value": "induced increased levels of phosphorylated Akt and S6"}]}
